Laboratory results: patent publication US9295641B2, “Compositions containing alpha-2-adrenergic agonist components” (Allergan, Inc., priority 2000, dated 2016)
Read-outs that look alike come from different tables or passages of the source.

Assays:
[1] = 23° C.
Method: The pH-solubility profile of brimonidine tartrate in an aqueous formulation (Ophthalmic Solution) was established in the pH range of about 5 to about 8 at 23° C. Table 1. […] Likewise, the temperature may be varied somewhat, for example, solubility curves may be performed at room temperature.
The formulation vehicle was prepared by first dissolving polyvinyl alcohol (PVA) in water. The PVA was added to approximately ⅓ of the required total amount of purified water with constant stirring. The slurry was stirred for 20-30 minutes and then heated to 80-95° C. with constant stirring. The mixture was removed from the heat source within 1 hour after having reached the temperature of 80-90° C. and stirred for an additional 10 minutes to ensure homogeneity (Part I). The other ingredients of the Ophthalmic Solution, except for brimonidine tartrate, were dissolved in a separate container with an additional ⅓ of the required total amount of purified water (Part II). The PVA mixture (Part I) was then quantitatively transferred to Part II using several rinse volumes of purified water. The solution was adjusted to final volume with purified water without pH adjustment.
Brimonidine tartrate was weighed and transferred to a 10 mL test tube containing 5 mL of the formulation vehicle described above. The pH of each sample was then adjusted to a desired value using dilute sodium hydroxide and/or dilute hydrochloric acid. The samples were placed in a rack on a stir plate and stirred at high speed to achieve uniform mixing for 2 days; a partition was placed between the rack and the stir plate to prevent any heat diffusion from the stir plate to the samples.
At the end of two days of stirring, the pH value of each sample was measured, and then approximately 1 mL of each sample was placed in a micro centrifuge tube (polypropylene) and centrifuged at 4,000 rpm for 10 minutes. The supernatant was filtered through a 1 μm filter unit (Whatman, […], PTFE). The first 3-4 drops of the filtrate were discarded; the rest of the filtrate was received and diluted quantitatively with HPLC mobile phase. The dilute sample was then injected directly on the HPLC column (Dupont Zorbax, 250 mm×4.6 mm, 5 μm) for brimonidine tartrate assay in order to quantify the amount of brimonidine tartrate. A control of 0.5% brimonidine tartrate was prepared in the same formulation vehicle at pH 6.3-6.5 and assayed before (untreated) and after (treated) centrifugation and filtration. This was done to evaluate the potential loss of brimonidine tartrate in these two steps of the sample preparation. To ensure reproducibility, the study was repeated on consecutive days.

[2] = composition including chlorite, equilibrated ten days
Method: Brimonidine tartrate is added to a test tube containing a composition including chlorite. The test tube was allowed to equilibrate for ten days. Samples obtained from the test tube are analyzed by HPLC using a size exclusion column in the presence or absence of a chaotrope, such as urea.

[3] = for Solubility of Brimonidine tartrate: fifteen days
Method: The effect of pH on the solubility of brimonidine tartrate in liquid formulations with and without SECs was determined. Particularly, the effect of the presence or absence of various concentrations of an exemplary SEC, sodium carboxymethylcellulose (CMC), on the solubility of brimonidine tartrate at various pH conditions was determined. The various concentrations of CMC tested with Brimonidine tartrate were 0%, 0.056%, 0.17%, 0.5%, 1.5% (w/v), see Table III.
The samples tested also contained isotonic components, buffer components, and stabilized chlorine dioxide (Purite™), Table III. Sodium carboxymethylcellulose, sodium chloride, potassium chloride, calcium chloride dihydrate, and magnesium chloride hexahydrate were USP grade. Boric acid and sodium borate decahydrate were NF grade.
Each sample (1 through 5) was brought to various points within a range of pH values from about 7 to about 10. The vials containing the sample solutions were placed on a laboratory rotator and left to equilibrate for fifteen days at 21° C. The sample solutions were filtered using a 25 mm diameter polysulfone cellulose acetate syringe type filter with 0.45 μm pore size. The filtered solutions were assayed for the amount of brimonidine tartrate in solution.
Conventional HPLC and detection techniques were used to detect and determine the concentrations of soluble brimonidine tartrate. Solubility is plotted against pH for each CMC concentration. The experimental data points were fitted to a modified Henderson-Hasselbalch equation using a nonlinear least squares routine (Deltagraph version 4.0 DeltaPoint, Inc.), See FIG. 1.

[4] = physchem

## 5-bromo-6-(2-imidozolin-2-ylamino)quinoxaline tartrate [Brimonidine tartrate]
[1]; STUDY 1, pH 5.55, Ophthalmic Solution, theoretical concentration based on sample weight, solution clear
  Solubility: > 16.44^b mgml^−1
[1]; STUDY 1, pH 5.92, Ophthalmic Solution
  Solubility: 13.26 mgml^−1
[1]; STUDY 1, pH 6.14, Ophthalmic Solution
  Solubility: 3.04 mgml^−1
[1]; STUDY 1, pH 6.57, Ophthalmic Solution
  Solubility: 0.755 mgml^−1
[1]; STUDY 1, pH 7.00, Ophthalmic Solution
  Solubility: 0.269 mgml^−1
[1]; STUDY 1, pH 7.45, Ophthalmic Solution
  Solubility: 0.117 mgml^−1
[1]; STUDY 1, pH 7.83, Ophthalmic Solution
  Solubility: 0.062 mgml^−1
[1]; STUDY 2, pH 5.50, Ophthalmic Solution, theoretical concentration based on sample weight, solution clear
  Solubility: > 20.06^b mgml^−1
[1]; STUDY 2, pH 5.92, Ophthalmic Solution
  Solubility: 16.08 mgml^−1
[1]; STUDY 2, pH 6.06, Ophthalmic Solution
  Solubility: 5.01 mgml^−1
[1]; STUDY 2, pH 6.90, Ophthalmic Solution
  Solubility: 0.319 mgml^−1
[1]; STUDY 2, pH 7.40, Ophthalmic Solution
  Solubility: 0.119 mgml^−1
[1]; STUDY 2, pH 7.77, Ophthalmic Solution
  Solubility: 0.063 mgml^−1
[1]; STUDY 2, pH 7.86, Ophthalmic Solution
  Solubility: 0.058 mgml^−1
[1]; STUDY 2, pH 7.88, Ophthalmic Solution
  Solubility: 0.054 mgml^−1
[2]
  Formation of dimers, by apparent molecular weights of brimonidine in solution: a portion of the brimonidine tartrate monomer units have conjugated to form dimmers
[3]; 0% CMC, pH 7.11, 21° C.
  Solubility of Brimonidine tartrate: 0.2064 % w/v
[3]; 0% CMC, pH 7.68, 21° C.
  Solubility of Brimonidine tartrate: 0.0786 % w/v
[3]; 0% CMC, pH 8.50, 21° C.
  Solubility of Brimonidine tartrate: 0.0286 % w/v
[3]; 0% CMC, pH 10.09, 21° C.
  Solubility of Brimonidine tartrate: 0.0218 % w/v
[3]; 0.056% CMC, pH 6.67, 21° C.
  Solubility of Brimonidine tartrate: 0.9302 % w/v
[3]; 0.056% CMC, pH 7.11, 21° C.
  Solubility of Brimonidine tartrate: 0.2828 % w/v
[3]; 0.056% CMC, pH 7.77, 21° C.
  Solubility of Brimonidine tartrate: 0.0721 % w/v
[3]; 0.056% CMC, pH 9.93, 21° C.
  Solubility of Brimonidine tartrate: 0.0234 % w/v
[3]; 0.17% CMC, pH 6.68, 21° C.
  Solubility of Brimonidine tartrate: 1.4200 % w/v
[3]; 0.17% CMC, pH 6.93, 21° C.
  Solubility of Brimonidine tartrate: 0.7302 % w/v
[3]; 0.17% CMC, pH 7.81, 21° C.
  Solubility of Brimonidine tartrate: 0.0735 % w/v
[3]; 0.17% CMC, pH 8.55, 21° C.
  Solubility of Brimonidine tartrate: 0.0328 % w/v
[3]; 0.17% CMC, pH 10.05, 21° C.
  Solubility of Brimonidine tartrate: 0.0241 % w/v
[3]; 0.5% CMC, pH 6.67, 21° C.
  Solubility of Brimonidine tartrate: 1.4464 % w/v
[3]; 0.5% CMC, pH 7.10, 21° C.
  Solubility of Brimonidine tartrate: 0.3693 % w/v
[3]; 0.5% CMC, pH 7.56, 21° C.
  Solubility of Brimonidine tartrate: 0.1451 % w/v
[3]; 0.5% CMC, pH 8.46, 21° C.
  Solubility of Brimonidine tartrate: 0.0313 % w/v
[3]; 0.5% CMC, pH 9.94, 21° C.
  Solubility of Brimonidine tartrate: 0.0250 % w/v
[3]; 1.5% CMC, pH 6.68, 21° C.
  Solubility of Brimonidine tartrate: 1.4256 % w/v
[3]; 1.5% CMC, pH 7.35, 21° C.
  Solubility of Brimonidine tartrate: 0.1904 % w/v
[3]; 1.5% CMC, pH 8.10, 21° C.
  Solubility of Brimonidine tartrate: 0.0498 % w/v
[3]; 1.5% CMC, pH 8.67, 21° C.
  Solubility of Brimonidine tartrate: 0.0311 % w/v
[3]; 1.5% CMC, pH 10.11, 21° C.
  Solubility of Brimonidine tartrate: 0.0222 % w/v
[3]; pH 7.5, 0% CMC
  Soluble Brimonidine tartrate (FIG. 1): 1000 ppm
[3]; pH 7.5, 0.056% CMC
  Soluble Brimonidine tartrate (FIG. 1): 1300 ppm
[3]; pH 7.5, 0.17% CMC
  Soluble Brimonidine tartrate (FIG. 1): 1300 ppm
[3]; pH 7.5, 0.5% CMC
  Soluble Brimonidine tartrate (FIG. 1): 1600 ppm
[3]; pH 7.5, 1.5% CMC
  Soluble Brimonidine tartrate (FIG. 1): about 1400 ppm

## Brc1c(NC2=NCCN2)ccc2nccnc12 [5-bromo-6-(2-imidozolin-2-ylamino)quinoxaline]
[4]
  pKa: ~7.4
